Source: patent US20080287513A1, “Topical compositions containing metronidazole” (priority 2007, published 2008)

Experiments:
[1] = Physical stability test of aqueous metronidazole compositions (crystal formation or precipitation); assay type: physicochemical; details: for Results from stability test: 24 h room temperature then 7 days at about 4 °C
Protocol: The solubility enhancing effect of the combination of niacinamide and urea in increasing the solubility of metronidazole in the aqueous compositions is evaluated by physical stability of the prepared compositions.
Therefore, the formulations are subject to a physical stability test. The protocol for the stability test is as follows: metronidazole and the solubility enhancing agents are combined with water either at room temperature or elevated temperature while stirring until dissolved. The solutions are permitted to cool to room temperature. Customary auxiliaries and additives may be added to the aqueous solutions containing solubilized metronidazole and solubility enhancing agents. The solutions may be gelled by using the suitable gelling agents. The compositions both in gel or solution form are then packaged in clear glass vials and sealed. The vials are kept at room temperature for 24 hours and monitored for crystal formation or precipitation. After 24 hours, the vials are placed in a refrigerator maintained at a temperature of about 4° C. for 7 days. After 7 days, the vials are removed from the refrigerator. Evidence of crystal formation or precipitation is examined.
(§1) Each formulation was prepared by combining niacinamide and metronidazole in water (q.s 100%). The mixture was kept at a temperature of about 45° C. while stirring until dissolved. The solutions were permitted to cool to room temperature, packaged and sealed in glass vials. The stability tests described in Example 1 were performed and the test results were recorded.
as §1, with “urea” for “niacinamide”
as §1, with “urea, niacinamide,” for “niacinamide”, “kept either at room temperature or” for “kept”

[2] = at 25 °C; cited from earlier work

For `Cc1ncc([N+](=O)[O-])n1CCO` [Metronidazole, 1-(2-hydroxyethyl)-2-methyl-5-nitroimidazole], the “Results from stability test” value ([1]; 1.0% metronidazole + 1.0% urea + 3.0% niacinamide in water) was “Crystals”, the “Results from stability test” value ([1]; 1.0% metronidazole + 1.0% urea + 4.0% niacinamide in water) was “Clear” and the “Results from stability test” value ([1]; 1.0% metronidazole + 2% niacinamide in water) was “Crystals formed”. The “Results from stability test” value ([1]; 1.0% metronidazole + 3% niacinamide in water) was “Crystals formed”, the “Results from stability test” value ([1]; 1.0% metronidazole + 3.0% urea + 3.0% niacinamide in water) was “Clear” and the “Results from stability test” value ([1]; 1.0% metronidazole + 4% niacinamide in water) was “Crystals formed”. The “Results from stability test” value ([1]; 1.0% metronidazole + 4.0% urea + 1.0% niacinamide in water) was “Crystals”, the “Results from stability test” value ([1]; 1.0% metronidazole + 5% niacinamide in water) was “Clear” and the “Results from stability test” value ([1]; 1.0% metronidazole + 5.0% urea + 1.0% niacinamide in water) was “Clear”. For the same compound, the “Results from stability test” value ([1]; 1.0% metronidazole + 5.0% urea + 1.0% niacinamide in water, listed as metronidazole) was “stable”, the “Results from stability test” value ([1]; 1.0% metronidazole + 5.0% urea + 2.0% niacinamide in water) was “Clear” and the “Results from stability test” value ([1]; 1.0% metronidazole + 7% urea in water) was “Crystals formed”. The “Results from stability test” value ([1]; 1.0% metronidazole + 7% urea in water, listed as metronidazole) was “not sufficient to solubilize”, the “Results from stability test” value ([1]; 1.0% metronidazole + 8% urea in water) was “Crystals formed” and the “Results from stability test” value ([1]; 1.0% metronidazole + 9% urea in water) was “Crystals formed”. For the same compound, the “Results from stability test” value ([1]; 1.0% metronidazole + 10% urea in water) was “Clear”, the “Results from stability test” value ([1]; 1.2% metronidazole + 10.0% urea + 2.0% niacinamide in water) was “Clear” and the “Results from stability test” value ([1]; 1.5% metronidazole + 15.0% urea + 4.0% niacinamide in water) was “Clear”.
With `NC(=O)c1cccnc1` [niacinamide] the “Concentration of niacinamide needed to obtain a stable aqueous solution of 1.0% metronidazole” value ([1]; concentration of urea is 1.0%) was “about 4.0%”, the “Urea concentration functionally equivalent to 1% niacinamide in inducing the solubility enhancing effect” value ([1]; from Examples 2 and 3, 1.0% metronidazole) was “about 2%” and the “Concentration of niacinamide required to obtain a stable aqueous solution of 1.0% metronidazole” value ([1]; niacinamide as the only solubility enhancing agent) was “about 5%”. For the same compound, the Water solubility limit [2] was “about 50 % by weight”.
For `NC(N)=O` [urea], the “Concentration of urea needed to obtain a stable aqueous solution of 1.0% metronidazole” value ([1]; concentration of niacinamide is 1.0%) is listed as ≥ 5.0%, the “Concentration of urea required to obtain a stable aqueous solution of 1.0% metronidazole” value ([1]; urea as the only solubility enhancing agent) is listed as “about 10%” and the Water solubility limit [2] is listed as “about 50 % by weight”.
